Assay results published in publication PMC9942557, “Bolaamphiphile Analogues of 12-bis-THA Cl2 Are Potent Antimicrobial Therapeutics with Distinct Mechanisms of Action against Bacterial, Mycobacterial, and Fungal Pathogens” (mSphere, 2022).

What was measured:
[1] = tested on: Klebsiella pneumoniae NCTC 13368; test: Broth microdilution MIC; assay type: cell-based
Klebsiella pneumoniae M6 = test: Broth microdilution MIC; assay type: cell-based
[2] = tested on: Acinetobacter baumannii AYE; test: Broth microdilution MIC; assay type: cell-based; details: Acinetobacter baumannii AYE
[3] = tested on: Acinetobacter baumannii ATCC 17978; test: Broth microdilution MIC; assay type: cell-based
[4] = tested on: Pseudomonas aeruginosa PAO1; test: Broth microdilution MIC; assay type: cell-based
[5] = tested on: Pseudomonas aeruginosa NCTC 13437; test: Broth microdilution MIC; assay type: cell-based
[6] = tested on: Escherichia coli NCTC 12923; test: Broth microdilution MIC; assay type: cell-based
[7] = tested on: EMR Staphylococcus aureus 15 NCTC 13616; test: Broth microdilution MIC; assay type: cell-based; details: EMR Staphylococcus aureus 15 NCTC 13616
[8] = tested on: EMR Staphylococcus aureus 16 NCTC 13277; test: Broth microdilution MIC; assay type: cell-based; details: EMR Staphylococcus aureus 16 NCTC 13277
[9] = tested on: VS Enterococcus faecalis NCTC 775; test: Broth microdilution MIC; assay type: cell-based
[10] = tested on: VR Enterococcus faecalis NCTC 12201; test: Broth microdilution MIC; assay type: cell-based; details: VR Enterococcus faecalis NCTC 12201
[11] = tested on: VR Enterococcus faecium NCTC 12204; test: Broth microdilution MIC; assay type: cell-based; details: VR Enterococcus faecium NCTC 12204
C. albicans 3179 = test: Broth microdilution MIC; assay type: cell-based, Candida albicans; details: C. albicans 3179
C. albicans 3281 = test: Broth microdilution MIC; assay type: cell-based, Candida albicans; details: C. albicans 3281
C. auris temp probe = test: Broth microdilution MIC; assay type: cell-based, Candida auris; details: C. auris temp probe
C. glabrata 8018 = test: Broth microdilution MIC; assay type: cell-based; details: C. glabrata 8018
C. tropicalis 8760 = test: Broth microdilution MIC; assay type: cell-based; details: C. tropicalis 8760
C. krusei 3876 = test: Broth microdilution MIC; assay type: cell-based
C. parapsilosis 3209 = test: Broth microdilution MIC; assay type: cell-based
C. parapsilosis = test: Broth microdilution MIC; assay type: cell-based
HEK293 = test: In vitro toxicity for cell line; assay type: cell-based, human; details: HEK293; average ± standard error from 3 independent repeats
From the text: (§1) TABLE 2 Toxicity of bolaamphiphiles for two cell lines^a | column: Toxicity (EC50 [μg/ml]) of: / 12-bis-THA Cl2; Toxicity (EC50 [μg/ml]) of: / Dequalinium; Toxicity (EC50 [μg/ml]) of: / Quino-bola; Toxicity (EC50 [μg/ml]) of: / Penta-bola; Toxicity (EC50 [μg/ml]) of: / Hepta-bola; Toxicity (EC50 [μg/ml]) of: / Octa-bola; Toxicity (EC50 [μg/ml]) of: / Octa-C10; Toxicity (EC50 [μg/ml]) of: / Octa-C8; Toxicity (EC50 [μg/ml]) of: / Octa-C6

HeLa = test: In vitro toxicity for cell line; assay type: cell-based, human; details: average ± standard error from 3 independent repeats
From the text: as §1

[12] = tested on: Prevotella bivia NCTC 11156; test: Anaerobic broth microdilution MIC (BHI, 5% horse serum); assay type: cell-based
G. vaginalis NCTC 10287 = test: as above; assay type: cell-based, Gardnerella vaginalis
G. vaginalis KC1 = test: as above; assay type: cell-based, Gardnerella vaginalis
G. vaginalis KC2 = test: as above; assay type: cell-based, Gardnerella vaginalis
G. vaginalis KC3 = test: as above; assay type: cell-based, Gardnerella vaginalis
P. aeruginosa PAO1 = test: Checkerboard synergy assay; assay type: cell-based, Pseudomonas aeruginosa
P. aeruginosa RP73 = test: Checkerboard synergy assay; assay type: cell-based, Pseudomonas aeruginosa
P. aeruginosa NCTC 13437 = test: Checkerboard synergy assay; assay type: cell-based, Pseudomonas aeruginosa
[13] = tested on: Ac. pleuropneumoniae Shope; test: Checkerboard synergy assay (BHI, 5% FBS, 0.01% NAD); assay type: cell-based, Actinobacillus pleuropneumoniae
[14] = tested on: Ac. pleuropneumoniae 2331; test: as above; assay type: cell-based, Actinobacillus pleuropneumoniae
[15] = tested on: Ac. pleuropneumoniae 2356; test: as above; assay type: cell-based, Actinobacillus pleuropneumoniae
[16] = tested on: Ac. pleuropneumoniae 3370; test: as above; assay type: cell-based, Actinobacillus pleuropneumoniae
EMRSA-15 = assay type: in vivo, Galleria mellonella
A. baumannii ATCC 17978 = test: G. mellonella burn wound infection model; assay type: in vivo, Galleria mellonella; details: alone; for larvae rescued: 96 h
From the text: In addition to the intrahemocoelic infection/therapy models described above, a recently described G. mellonella burn wound model was adopted ([37]). The burn was created using the flat head of a nail, which was heated in a blue Bunsen burner flame until red hot, cooled for 15 s, and superficially applied for 2 s to generate a 2-mm^2 burn. Larvae were then infected with a single colony of A. baumannii ATCC 17978 applied directly to the burn site, or sterile phosphate-buffered saline was applied as a control. Treatment was applied topically 1 h after infection in a volume of 5 μL. Survival was monitored over 96 h.

Nc1c2c([n+](CCCCCCCCCC[n+]3c4c(c(N)c5ccccc53)CCCCCC4)c3ccccc13)CCCCCC2 [Octa-C10]
MIC [1]: 32 µg/mL
MIC (Klebsiella pneumoniae M6): 16 µg/mL
MIC [2]: 16 µg/mL
MIC [3]: 8 µg/mL
MIC [4]: >32 µg/mL
MIC [5]: >32 µg/mL
MIC [6]: 2 µg/mL
MIC [7]: 0.25 µg/mL
MIC [8]: 0.25 µg/mL
MIC [9]: 2 µg/mL
MIC [10]: 1 µg/mL
MIC [11]: 0.25 µg/mL
MIC (C. albicans 3179): 0.5 µg/mL
MIC (C. albicans 3281): 1 µg/mL
MIC (C. auris temp probe): 4 µg/mL
MIC (C. glabrata 8018): 0.5 µg/mL
MIC (C. tropicalis 8760): 0.25 µg/mL
MIC (C. krusei 3876): 2 µg/mL
MIC (C. parapsilosis 3209): 2 µg/mL
MIC (C. parapsilosis): 4 µg/mL
Toxicity (EC50) (HEK293): 7.0 ± 0.5 µg/mL
Toxicity (EC50) (HeLa): 10.7 ± 0.3 µg/mL
MIC [12]: 0.125 µg/mL
MIC (G. vaginalis NCTC 10287): 0.5 to 1 µg/mL
MIC (G. vaginalis KC1): 0.5 to 1 µg/mL
MIC (G. vaginalis KC2): 2 µg/mL
MIC (G. vaginalis KC3): 0.5 µg/mL
MIC alone Bolalipid (P. aeruginosa PAO1): 64 µg/mL
MIC alone Bolalipid (P. aeruginosa RP73): 8 µg/mL
MIC alone Bolalipid (P. aeruginosa NCTC 13437): 32 µg/mL
MIC alone Bolalipid ([13]; Octa-C10/enrofloxacin): 1 µg/mL
MIC alone Bolalipid ([13]; Octa-C10/streptomycin): 1 µg/mL
MIC alone Bolalipid ([14]; Octa-C10/enrofloxacin): 4 to 8 µg/mL
MIC alone Bolalipid ([14]; Octa-C10/streptomycin): 4 to 8 µg/mL
MIC alone Bolalipid ([15]; Octa-C10/enrofloxacin): 4 to 8 µg/mL
MIC alone Bolalipid ([15]; Octa-C10/streptomycin): 4 to 8 µg/mL
MIC alone Bolalipid ([16]; Octa-C10/enrofloxacin): 4 to 8 µg/mL
MIC alone Bolalipid ([16]; Octa-C10/streptomycin): 4 to 8 µg/mL
protection (EMRSA-15; in vivo): none of them providing significant protection
infected larvae rescued (EMRSA-15; lowest dose, 0.1 mg/kg): approximately a third
larvae rescued (A. baumannii ATCC 17978; 5 mg/kg topical): 48%
larvae rescued (A. baumannii ATCC 17978; 10 mg/kg topical): 60%
protection (A. baumannii ATCC 17978; lower doses (2.5 and 1.25 mg/kg)): ineffective
